Test results: patent US9284541B2, “Methods and compositions for protein labeling using lipoic acid ligases” (Massachusetts Institute of Technology, priority 2007, dated 2016)
“Also recorded” adds a separate entry of the source.

Assays:
LplA [1] = target: T1, LplA (Escherichia coli, UniProt P32099); test: HPLC analysis of LplA modification of HP1-peptide fusions; kcat of azide 7 ligation to LAP; type: biochemical, E. coli; details: C-terminal fusion to HP1 versus peptide 8
E. coli LplA = target: T2, E. coli LplA (Escherichia coli, UniProt P32099); test: Measurement of LplA-probe ligation kinetics (HPLC); type: biochemical
T2 sequence (P32099 2-338 limits assumed): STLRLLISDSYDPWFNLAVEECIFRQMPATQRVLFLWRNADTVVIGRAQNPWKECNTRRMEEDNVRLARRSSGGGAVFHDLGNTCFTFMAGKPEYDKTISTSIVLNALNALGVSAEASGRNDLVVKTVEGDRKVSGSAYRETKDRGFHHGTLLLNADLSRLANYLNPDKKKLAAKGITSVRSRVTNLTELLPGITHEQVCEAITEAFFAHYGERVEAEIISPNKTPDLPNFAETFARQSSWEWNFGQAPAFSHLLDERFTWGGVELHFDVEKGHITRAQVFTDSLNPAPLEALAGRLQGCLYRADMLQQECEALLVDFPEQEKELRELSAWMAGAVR
Description: To measure the kcat for LplA ligation of lipoic acid to E2p, 50 nM LplA was combined with 200 μM E2p, 750 μM lipoic acid, […], and 2 mM magnesium acetate in 25 mM sodium phosphate pH 7.0. The reaction was initiated with addition of 1 mM ATP to the pre-warmed (30° C.) mixture. The reaction was incubated at 30° C., and 90 μL aliquots were removed every 5 minutes and quenched with 50 mM EDTA (final concentration). Samples were analyzed by C18 reverse-phase HPLC as described in the “Methods” section. Measurements were performed in triplicate. A calibration curve was obtained that correlated the ratio of integrated HPLC peak areas (E2p:E2p-probe) to the actual protein ratio, in order to compensate for differences in the extinction coefficients of E2p and lipoylated E2p. The amount of product obtained at each time point was plotted against time, to obtain the Vmax of the reaction. From this, the kcat value was obtained using the equation Vmax=kcat [E]total.
90 μL aliquots were removed from the 30° C. reactions at 5 minutes intervals, up to 30 minutes, and quenched with 50 mM EDTA (final concentration). Samples were analyzed by HPLC as above. The amount of product obtained at each time point was plotted against time, to obtain the initial velocity for each concentration of azide 7. […] From the Vmax value, kcat was calculated using the equation Vmax=kcat [E]total.

LplA [2] = target: T1, LplA; test: In vitro LplA activity assay: probe ligation onto E2p (HPLC); type: biochemical, E. coli; details: 350 μM probe, 200 μM E2p, 30 minutes
Description: LplA reactions contained 2 μM LplA, 200 μM E2p, 350 μM probe, 1 mM ATP, 2 mM magnesium acetate, and 25 mM sodium phosphate pH 7.0. Reactions were incubated at 30° C. for 30 minutes, and then quenched with EDTA (final concentration 50 mM). Conversion to product was determined by HPLC on a C18 reverse-phase column with a 40-57% gradient of acetonitrile in water with 0.1% trifluoroacetic acid over 20 minutes (flow rate 1.0 mL/minute). […] Percent conversion to product was calculated from the ratio of the E2p-probe peak area to the sum of (E2p+E2p-probe) peak areas. All measurements were performed in triplicate.

[3] = tested on: mitochondrial respiration; test: Effect of azide 7 on mitochondrial respiration; type: cell-based; details: 24-hour exposure, concentrations less than 750 μM

Compound: peptide 9: peptide 8 fused to the C-terminal end of HP1 (SEQ ID NO: 9) (DEVLVEIETDKAVLEVP)
- drop of lipoylation rate (LplA [1]): 5 fold

Compound: O=C(O)CCCC[C@@H]1CCSS1 (racemic) [lipoic acid]
- kcat of LplA-catalyzed ligation to E2p (E. coli LplA; 30° C., pH 7.0): 0.253 ± 0.003 s⁻¹

Compound: [N-]=[N+]=NCCCCCCCC(=O)O [azide 7, 8-azidooctanoic acid]
- incorporation / ligation kinetics by LplA (LplA [2]): fastest kinetics; also recorded: best kinetics
- effect on mitochondrial respiration [3]: no effect
- Kcat relative to the measured Kcat for lipoic acid ligation (E. coli LplA; ligation to E2p): 2.3 fold
